Experimental data reported in patent US11779625B2, “Composition and application thereof in preparing product for protecting mitochondria” (INFINITUS (CHINA) COMPANY LTD., priority 2021, dated 2023).
Entries after “also recorded” stand apart in the source; their conditions may differ.

Legend:
[1] = test system: Slc25a46−/− mouse embryonic fibroblasts; assay: MTT in-vitro cytotoxicity experiment (cell morphology and viability), Slc25a46−/− cells; type: cell-based; conditions: 24 hours; for effect on cell viability/growth (MTT): Slc25a46−/− cells
Method: (§1) The MEF cells were derived from wild-type fetal mice (WT) and Slc25a46 homozygous fetal mice (Slc25a46−/−). Pregnant mice were anesthetized and killed, and dissected to obtain mouse embryos, and bodies of fetal mice were obtained, and washed with PBS for 3 times. Clean mouse embryonal tissues were transferred into a culture dish, and cut into pieces, 2 mL of trypsin was added into the tissue pieces, and continuously cut into pieces for several minutes. Then, 5 mL of trypsin was added into the culture dish above, and blown up and down with a straw vigorously, and the culture dish was put into an incubator for incubation for 20 minutes to 30 minutes. The tissues cut into pieces were taken out of the incubator, and added with about 20 mL of MEF medium. A tissue mixture was transferred into each flask and placed into an incubator for overnight incubation. Then, growth of fibroblasts was observed regularly and the culture medium was replaced. When the fibroblasts covered 90% of the culture flask, the mouse embryonic fibroblasts were collected for subsequent experiment.
(§2) 100 uL of WT mouse cells and Slc25a46−/− mouse cells with a cell concentration of 3.5×10^5 cells/mL were inoculated into a 96-well plate, and cultured in a CO2 incubator at 37° C. for 24 hours. […] An absorbance at 570 nm was detected with a multi-functional microplate scanner, and effects of test solutions with different concentrations on cell viability were calculated with a blank control as 100%.

Slc25a46−/− mice [2] = assay: SOD enzyme activity in liver tissues after intragastric intervention; type: in vivo, mouse; conditions: intragastric every day for 10 days, Example 400, Comparative example 1 100, 2 244, 3 56, 4 500 mg/kg
Method: Animal experimental subjects were Slc25a46 knockout (Slc25a46−/−) mice of 1 month old, which were divided into a blank solvent control group (3 mice) and experimental groups (4 mice in each group). Under a same SPF level, the mice were fed with a full-nutrient feed prepared according to an AIN93G formula of Jiangsu Xietong Biology Co., Ltd., and subjected to intragastric administration every day, which lasted for a period of 10 days. […] The blank solvent control group was administered intragastrically with solvent water. After the intragastric administration experiment, brain tissues and liver tissues of the mice were collected for physiological and biochemical detections respectively, and an oxidative stress level and an ability of delaying aging were analyzed.
9 times volume of ice normal saline was added according to a ratio of a tissue weight (g) to a tissue volume (ml) of 1:9, and the tissues were cut into pieces with a surgical scissor, prepared into 10% tissue homogenate with a homogenizer (the homogenation lasted 10 seconds once, and was continuously carried out for 3 times to 5 times at intervals of 5 seconds on ice), and centrifuged at 2500 rpm to 3000 rpm for 10 minutes. A supernatant was taken for subsequent determination. […]

Slc25a46−/− mice [3] = assay: NAMPT enzyme activity in liver tissues (ELISA kit); type: in vivo, mouse; conditions: intragastric every day for 10 days, Example 400, Comparative example 1 100, 2 244, 3 56, 4 500 mg/kg
Method: A certain amount of liver tissues of the mice were homogenized, and a supernatant was taken. […] Marker wells, blank wells and sample wells were provided, 50 μL of markers with different concentrations were added into the marker wells, 50 μL of to-be-tested sample was added into the sample wells, and 50 μL of sample diluent was added into the blank wells. […] 50 μL of substrate A and 50 μL of substrate B were respectively added into each well, and an OD value of each well at a wavelength of 450 nm was measured within 15 minutes. Data was recorded, and statistical analysis was made with Prism software.

[4] = test system: WT mouse embryonic fibroblasts; assay: MTT in-vitro cytotoxicity experiment (cell morphology and viability), WT cells; type: cell-based; conditions: 24 hours; for effect on cell viability/growth (MTT): WT cells
Method: as §1, §2

[5] = high concentration (1,000 μg/mL to 2,000 μg/mL)

NC(=O)c1cccnc1 [Comparative example 4, nicotinamide]
effect on cell morphology ([1]; Slc25a46−/− MEF cells, up to 2,000 μg/mL): no effect on the cell morphology | effect on cell viability/growth (MTT) ([1]; 125 μg/mL to 2,000 μg/mL): no effect on the viability of the Slc25a46−/− cells and a viability of the WT cells | effect on cell viability/growth (MTT) [1, 5]: promotes growth of the Slc25a46−/− cells and the WT cells, without a concentration effect | SOD enzyme activity-Liver tissue (Slc25a46−/− mice [2]): 2.22 ± 0.02 U/mgprot | NAMPT enzyme activity-Liver tissue (Slc25a46−/− mice [3]): 0.32 ± 0.01 ng/mg protein | effect on cell morphology ([4]; WT MEF cells, up to 2,000 μg/mL): no effect on the cell morphology | effect on cell viability/growth (MTT) ([4]; 125 μg/mL to 2,000 μg/mL): no effect on the viability of the Slc25a46−/− cells and a viability of the WT cells | effect on cell viability/growth (MTT) [4, 5]: promotes growth of the Slc25a46−/− cells and the WT cells, without a concentration effect; also recorded: promote proliferation of the WT cells
